# Reference: patent US10577638B2, “Systems, devices, and methods for microbial detection and identification, and antimicrobial susceptibility testing” (Board of Regents, The University of Texas System, priority 2013, dated 2020)
# Test system: CA-MRSA clinical isolates and a wild type CA-MRSA strain
# Test: AST-Chip antibiotic susceptibility test of CA-MRSA clinical isolates (FUN-1 fluorescence)
# Format: cell-based, Staphylococcus aureus
# Settings: isolates A32, K2 and B2 compared with isolates I27, D1, M2 and WT, 8 μg/ml, incubated 16 h
# Description: The key steps in chip fabrication are described in below (these methods are also described in Srinivasan et al., which is incorporated by reference herein). The fabrication included three steps: (i) modification of the surface of glass slides with poly(styrene-co-maleic anhydride) (PSMA); (ii) printing spots of a 30 nl mixture of poly-l-lysine and barium chloride to create a “tie-layer” using a robotic microarrayer (Microsys, Digilab); and (iii) printing a 30 nl mixture of 0.5% alginate solution, optimized-growth medium and antimicrobial agents at various concentrations on top of the tie-layer. […]
# The AST-Chip was benchmarked by evaluating the antimicrobial-susceptibility of a wild type strain of Staphylococcus aureus (UAMS-1) and CA-MRSA (USA 300) against methicillin. […] After incubation, the cell density at different spots was quantified using FUN-1, a vital fluorescent dye with excitation and emission wavelength that is compatible with a standard microarray scanner and facilitating faster read out (FIG. 6A). The fluorescence intensity of control (no drug) and sodium hypochlorite-treated dead biofilms were set at 100% and 0%, respectively. The inhibitory effects of the antimicrobial agents were determined by the reduction in fluorescence intensity in comparison to the controls (FIG. 6B). […]
compound,measurement,value
CN[C@H](CC(C)C)C(=O)N[C@H]1C(=O)N[C@@H](CC(N)=O)C(=O)N[C@H]2C(=O)N[C@H]3C(=O)N[C@H](C(=O)N[C@H](C(=O)O)c4cc(O)cc(O)c4-c4cc3ccc4O)[C@H](O)c3ccc(c(Cl)c3)Oc3cc2cc(c3O[C@@H]2O[C@H](CO)[C@@H](O)[C@H](O)[C@H]2O[C@H]2C[C@](C)(N)[C@H](O)[C@H](C)O2)Oc2ccc(cc2Cl)[C@H]1O [vancomycin],relative susceptibility of isolates to the drug,less susceptible
